Results on 1 substance are retold here after US20070149456A1, “Epithelial sodium channel inhibiting agents and uses therefor” (University of Pittsburgh, priority 2005, published 2007).

pIC50: −log10 of the molar value. Entries after “also recorded” stand apart in the source; their conditions may differ.

Assay [1] has as its target T1, endogenous ENaC in HAE cells (Homo sapiens, UniProt P37088+P51168+P51170).
T1 construct: endogenous in cells; host or cells: primary human airway (bronchial) epithelial cells from transplant or donor lungs
The following applies: human airway cells; stated jointly with mouse CCD; Carattino 2006; read-out: IC50, inhibition of ENaC activity; cited from earlier work.

Another assay relates to αR205A,Δ206-231βγ. Nature of the assay: Two-electrode voltage clamp in oocytes expressing channels lacking furin cleavage and the tract αAsp-206-Arg-231. The assay is classed as cell-based, mouse. The note with it: 1 μM α-26. The text has this: Oocyte Expression—cRNAs for α, β, γ mouse ENaC (wild-type and mutant) subunits and mouse prostasin were synthesized with T3 or T7 m-Message mMachineTM (Ambion, Austin, Tex.). Subunits carrying furin cleavage consensus site mutations and the corresponding wild-type subunits have amino-terminal HA and carboxyl-terminal V5 tags (Hughey, R. P., Bruns, J. B., Kinlough, C. L., Harkleroad, K. L., Tong, Q., Carattino, M. D., Johnson, J. P., Stockand, J. D., and Kleyman, T. R. (2004) J. Biol. Chem. 279, 18111-18114 18). Stage V-VI Xenopus laevis oocytes were pretreated with 1.5 mg/ml of type IV collagenase and injected with 0.5-2 ng of cRNA/subunit. Injected oocytes were maintained as previously reported (Carattino, M. D., Hill, W. G., and Kleyman, T. R. (2003), Arachidonic Acid Regulates Surface Expression of Epithelial Sodium Channels, J Biol. Chem. 278, 36202-36213 29).
Two-electrode Voltage Clamp—Two-electrode voltage clamp (TEV) was performed as previously described (Carattino, M. D., Hill, W. G., and Kleyman, T. R. (2003) J Biol. Chem. 278, 36202-36213 29). The extracellular solution (TEV solution) was (in mM): 110 NaCl, 2 KCl, 1.54 CaCl2, 10 HEPES, pH 7.4, or otherwise as indicated. […] ENaC-mediated whole cell Na^+ currents, at −60 mV,were defined as the amiloride-sensitive component of the current. […]
(In two-electrode clamp one electrode senses voltage and the other passes current.)

Usually pIC50 stands for the IC50 on a negative log10 scale, so that one unit is a factor of ten.

T1 sequence (P37088 1-178): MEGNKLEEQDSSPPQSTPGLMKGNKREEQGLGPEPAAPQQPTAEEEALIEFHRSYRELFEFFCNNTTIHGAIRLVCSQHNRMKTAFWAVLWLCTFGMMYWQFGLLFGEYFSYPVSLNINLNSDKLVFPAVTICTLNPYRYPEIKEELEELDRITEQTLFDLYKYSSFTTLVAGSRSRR
T1 sequence (P37088 205-669): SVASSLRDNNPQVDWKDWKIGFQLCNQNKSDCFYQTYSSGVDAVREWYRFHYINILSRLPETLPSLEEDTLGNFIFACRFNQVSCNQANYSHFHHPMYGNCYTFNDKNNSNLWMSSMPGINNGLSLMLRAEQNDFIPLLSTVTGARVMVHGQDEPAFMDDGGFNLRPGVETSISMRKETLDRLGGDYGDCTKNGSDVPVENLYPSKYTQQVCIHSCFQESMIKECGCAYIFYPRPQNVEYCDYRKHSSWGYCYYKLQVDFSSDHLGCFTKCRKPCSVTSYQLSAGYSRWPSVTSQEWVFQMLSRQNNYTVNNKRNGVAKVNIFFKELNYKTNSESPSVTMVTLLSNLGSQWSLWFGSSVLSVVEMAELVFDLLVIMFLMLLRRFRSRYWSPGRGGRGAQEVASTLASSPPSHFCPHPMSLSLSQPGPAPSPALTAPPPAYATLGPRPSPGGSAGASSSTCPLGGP
T1 sequence (P51168 whole entry): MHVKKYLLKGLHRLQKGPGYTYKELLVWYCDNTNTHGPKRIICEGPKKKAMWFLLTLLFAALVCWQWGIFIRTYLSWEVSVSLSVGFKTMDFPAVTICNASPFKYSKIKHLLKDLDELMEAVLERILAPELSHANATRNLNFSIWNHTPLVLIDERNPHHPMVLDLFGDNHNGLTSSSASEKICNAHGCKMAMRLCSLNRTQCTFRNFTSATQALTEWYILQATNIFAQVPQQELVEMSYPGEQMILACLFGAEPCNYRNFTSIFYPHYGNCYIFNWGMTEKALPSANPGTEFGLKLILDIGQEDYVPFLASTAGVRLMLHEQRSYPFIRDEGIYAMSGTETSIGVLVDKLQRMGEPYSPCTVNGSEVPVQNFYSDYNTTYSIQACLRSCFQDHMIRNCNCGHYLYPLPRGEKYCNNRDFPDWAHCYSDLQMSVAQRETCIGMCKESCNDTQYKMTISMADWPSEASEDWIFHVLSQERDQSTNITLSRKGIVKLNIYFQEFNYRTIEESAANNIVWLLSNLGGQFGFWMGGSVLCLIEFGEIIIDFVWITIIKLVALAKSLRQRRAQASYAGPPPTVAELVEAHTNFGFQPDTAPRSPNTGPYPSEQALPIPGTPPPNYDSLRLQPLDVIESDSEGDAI
T1 sequence (P51170 1-138): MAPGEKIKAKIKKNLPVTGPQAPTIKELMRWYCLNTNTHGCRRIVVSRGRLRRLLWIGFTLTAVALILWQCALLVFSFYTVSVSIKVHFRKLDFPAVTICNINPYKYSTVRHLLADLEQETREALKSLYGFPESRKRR
T1 sequence (P51170 182-649): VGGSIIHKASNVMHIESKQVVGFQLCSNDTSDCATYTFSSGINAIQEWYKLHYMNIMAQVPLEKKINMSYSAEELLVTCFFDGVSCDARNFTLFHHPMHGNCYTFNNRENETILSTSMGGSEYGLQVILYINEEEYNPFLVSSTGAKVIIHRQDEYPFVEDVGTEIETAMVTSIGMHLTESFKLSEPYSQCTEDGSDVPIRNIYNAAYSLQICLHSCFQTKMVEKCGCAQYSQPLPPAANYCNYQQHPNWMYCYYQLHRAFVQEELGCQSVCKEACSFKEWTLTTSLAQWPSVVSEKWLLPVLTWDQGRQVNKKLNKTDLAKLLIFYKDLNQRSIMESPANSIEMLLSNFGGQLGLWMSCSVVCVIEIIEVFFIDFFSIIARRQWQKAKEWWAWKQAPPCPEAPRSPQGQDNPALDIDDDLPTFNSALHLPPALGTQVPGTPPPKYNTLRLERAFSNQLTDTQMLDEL

Consider “Ac-DLRGALPHPLQRLRTPPPPNPARSAR-NH2 [α-26]”, for which, in assay [1], the pIC50 was 4.00 to 4.30. The “block of channels” value with αR205A,Δ206-231βγ was “does not block; also recorded: not blocked”.
